From paper PMC12684391, “Mechanistic insights into the monotherapy and combination potential of FEN1 inhibition in cancer therapy” (Nucleic Acids Research, 2025) come the findings set out here.

Experiment [1] has as its system HAP1 USP1KO cells. The experiment in a line: Cell viability assay (CTG), 7 days. It counts as cell-based. To be noted: two independent USP1KO lines. On the procedure:
Cells were seeded in 150 μl of media in 96-well plates or in 70 μl of media in 384-well plates pre-dosed with compounds (8–10 points dose response) with a D300e digital dispenser (Tecan) and incubated for 24 h at 37°C and 5% CO2. Cell proliferation at the end of the assay (7 days) was measured using CTG (Promega, G9243). CTG luminescence was normalized to vehicle treated control for each cell line, and data were fitted with a nonlinear regression curve (four parameters) to generate compound sensitivity curves and determine IC50 or EC50 (half maximal inhibitory/effective concentration) values as indicated.

Experiment [2] has as its target T1, FEN1 (1-380) FL-6His (Homo sapiens, UniProt P39748).
T1 construct: FEN1(1-380)-6His was immobilized on a CM5 chip; made in house; host or cells: Escherichia coli
Kind of experiment: Differential scanning fluorimetry. The class given is binding. To be noted: compound 100 µM. On the procedure:
A volume of 100 nl of each compound at stock concentration of 10 mM was dispensed into a 384-well skirted PCR Plate (MicroAmp™ Optical plate) using a D300e digital dispenser (Tecan). Wells were normalized such that each contained 1% (v/v) DMSO and final compound concentration of 100 µM.
FEN1 (1-380) FL-6His protein (1.25×) and protein 5× thermal shift dye (Thermo Fisher Scientific) were prepared separately in freshly prepared differential scanning fluorimetry (DSF) assay buffer (20 mM Tris–HCl pH 7.5, 100 mM potassium chloride, 5 mM magnesium chloride, and 1 mM dithiothreitol). Eight microliters of 1.25× Fen1 (10 µM) was added to the appropriate well, plate sealed with aluminium sealing film (Axygen), and centrifuged at 500 × g for 1 min before incubating for 30 min at 4°C. After the incubation period, the plate was centrifuged again at 500 × g for 1 min and 2 µl of 5× protein thermal shift dye was added. […] Fluorescence was measured using a Quantstudio pro7.0 qPCR machine (Thermo Fisher Scientific) using internal optical ×1 filter (470 ± 15 nm) for excitation and m3 filter (586 ± 10 nm) for emission.
Each experiment was run in quadruplicates and melting temperatures (Tm) calculated as the inflection point of the derivative function using the protein thermal shift software (Thermo Fisher Scientific). DeltaTm was calculated using the Tm of protein with 1% DMSO as reference.

For experiment [3], the target named is T2, XPG (Homo sapiens, UniProt P28715).
T2 construct: XPG (1-1186); Strep-tag (C); made in house; host or cells: Sf9 insect cells
T2 sequence (P28715 whole entry): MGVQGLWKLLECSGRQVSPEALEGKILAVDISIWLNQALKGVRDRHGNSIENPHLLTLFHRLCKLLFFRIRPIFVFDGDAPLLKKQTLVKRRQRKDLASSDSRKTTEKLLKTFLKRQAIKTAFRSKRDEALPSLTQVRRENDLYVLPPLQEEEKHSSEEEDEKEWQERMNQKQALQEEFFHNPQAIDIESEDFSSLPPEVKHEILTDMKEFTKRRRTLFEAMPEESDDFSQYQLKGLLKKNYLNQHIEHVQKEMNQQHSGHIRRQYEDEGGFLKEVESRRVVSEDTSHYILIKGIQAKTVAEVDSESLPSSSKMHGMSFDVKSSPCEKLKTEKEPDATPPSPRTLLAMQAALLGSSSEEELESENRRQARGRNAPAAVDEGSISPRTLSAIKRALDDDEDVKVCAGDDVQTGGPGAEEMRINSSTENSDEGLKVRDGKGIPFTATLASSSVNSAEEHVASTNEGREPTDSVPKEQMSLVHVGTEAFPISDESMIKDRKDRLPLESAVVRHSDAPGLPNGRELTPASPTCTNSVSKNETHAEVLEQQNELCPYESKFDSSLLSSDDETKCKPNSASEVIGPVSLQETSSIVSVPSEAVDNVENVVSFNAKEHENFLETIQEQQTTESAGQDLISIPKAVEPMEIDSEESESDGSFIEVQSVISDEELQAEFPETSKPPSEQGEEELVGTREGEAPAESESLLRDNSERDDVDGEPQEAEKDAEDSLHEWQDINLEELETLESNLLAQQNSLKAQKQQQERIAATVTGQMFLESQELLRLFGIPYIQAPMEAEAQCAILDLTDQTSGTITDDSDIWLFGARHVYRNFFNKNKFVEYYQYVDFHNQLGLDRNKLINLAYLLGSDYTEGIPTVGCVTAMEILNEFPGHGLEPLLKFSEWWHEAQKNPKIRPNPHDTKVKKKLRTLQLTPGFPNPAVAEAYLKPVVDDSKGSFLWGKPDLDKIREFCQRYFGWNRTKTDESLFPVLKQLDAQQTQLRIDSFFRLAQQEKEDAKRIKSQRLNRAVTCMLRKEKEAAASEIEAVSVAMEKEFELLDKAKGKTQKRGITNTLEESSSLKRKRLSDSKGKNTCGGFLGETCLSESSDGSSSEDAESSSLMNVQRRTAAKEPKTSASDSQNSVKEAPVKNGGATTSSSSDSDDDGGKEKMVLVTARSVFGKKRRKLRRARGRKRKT
Kind of experiment: Fluorescence-based nuclease activity assay, XPG. It counts as biochemical. The following applies: n = 10, SD = 0.86; cognate substrate. On the procedure:
MSC778 was dissolved in dimethyl sulphoxide (DMSO) to give a 10 mM stock. FEN1/EXO1: compound was dispensed into black 384-shallow well microplates (Greiner #784076). The compound was dispensed as an 11-point dose response with a 3-fold serial dilution from a top concentration of 10 mM (to give a final in-assay concentration of 100 µM). GEN1/XPG: MSC778 was dispensed into black 1536-well plates (Greiner #782076). The compound was dispensed as a 20-point dose response with a 3-fold serial dilution from a top concentration of 10 mM (to give a final in-assay concentration of 100 µM). The volume of DMSO was adjusted to ensure that each well contained 1% (v/v) DMSO in the final assay. Control wells containing DMSO alone or inhibitor at sufficient concentration to cause complete inhibition of the reaction were also included. […]
5 µl (FEN1/EXO1) or 3 µl per well (GEN1/XPG) of stop buffer (20 mM Tris pH 7.5, 300 mM EDTA) was added to all wells, then the plates were read on the CLARIOstar Plus (BMG LABTECH Ltd.) using the Fluorescein (FITC) wavelengths (Ex 483 ± 14, Em 530 ± 30, Dichroic auto/502.5) and auto focal height/gain settings.
All data analysis was carried out using Genedata Screener software. IC50 values were calculated using the SmartFit function.

The test system of experiment [4] is HCT-116, NCI-H460, SUM149PT, MDA-MB-436 cells. Kind of experiment: Combination viability assay (CTG, Bliss synergy). The class given is cell-based. The following applies: control in place of MSC778. On the procedure:
For combination analysis, cells were seeded in 70 μl of media in 384-well plates pre-dosed with compounds (5-point dose–response matrix) with a D300e digital dispenser (Tecan). Cell proliferation was determined after 7 days using CTG. Analysis was performed with Genedata Screener (Compound Synergy Extension) to determine Synergy scores (Bliss model), using a formulation whereby the Blissexcess is a continuous value and values higher than 2 are usually considered synergistic, and values between 0 and 2 are usually considered additive.

T1 sequence (P39748 whole entry): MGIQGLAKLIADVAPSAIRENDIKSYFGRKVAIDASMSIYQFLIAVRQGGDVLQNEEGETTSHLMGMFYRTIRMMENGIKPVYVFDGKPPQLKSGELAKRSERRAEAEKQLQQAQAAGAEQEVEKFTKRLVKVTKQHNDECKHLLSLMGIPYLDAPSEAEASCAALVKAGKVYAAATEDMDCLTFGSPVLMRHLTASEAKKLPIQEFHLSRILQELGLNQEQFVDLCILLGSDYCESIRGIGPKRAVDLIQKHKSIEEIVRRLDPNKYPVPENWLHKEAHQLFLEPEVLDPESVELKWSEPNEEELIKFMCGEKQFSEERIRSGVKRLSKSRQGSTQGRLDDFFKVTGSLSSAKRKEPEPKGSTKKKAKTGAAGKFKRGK

What is called IC50 is the point on the concentration scale where inhibition reaches its midpoint. A high value points to lower potency. `C[C@H](Oc1nn2c(c(O)c1=O)C(=O)N1CCOC[C@@H]1C2)c1ccc2ccc(Cl)cc2c1` [MSC778]: the “Sensitization of USP1KO cell lines compared to isogenic HAP1 WT cells” value in experiment [1] came out at 3 fold. The “Thermal stabilization of FEN1 (DSF)” value in experiment [2] is “thermally stabilized FEN1”. The same compound came in with an IC50 in experiment [3] of 218 nM.
Consider `C[C@@H](Oc1nn2c(c(O)c1=O)C(=O)N1CCOC[C@@H]1C2)c1ccc2ccc(Cl)cc2c1` [MSC781], for which the “Combination effects on viability with partner DDR inhibitors” value in experiment [4] is on record as “not observed”.
